In patent US20230137956A1, “ALPHA SUBSTITUTED STAT INHIBITORS AND COMPOSITIONS THEREOF” (JANPIX LIMITED, priority 2020, published 2023):
Like-named read-outs stand apart in the source and are kept apart here.

Legend:
MV4-11 cells = test: MV4-11 Cell Cytotoxicity Assay; type: cell-based, human; conditions: 72 h incubation, CellTiter-Blue, read-out: IC50-MV-4-11
Description: In some embodiments, the potency of the STAT5 inhibitors are evaluated by an in vitro assay such as MV4-11 Cell Cytotoxicity Assay. MV4-11 cells were grown in Iscove's Modified Dulbecco's Medium (IMDM) supplemented with 10% fetal bovine serum (FBS). 10,000 cells were plated per well in 96-well flat-bottom sterile culture plates with low-evaporation lids. After 24 h, inhibitors and a vehicle control (0.5% DMSO) were added and the cells were incubated for 72 h at 37° C. in 5% CO2. Inhibitors were examined in triplicate at a maximal concentration of 50 μM, followed by 1:2 dilutions in subsequent wells (25, 12.5, 6.25, 3.125, 1.5625, 0.78125, 0.390625, 0.195313 and 0.097656 μM). After 72 h, the wells were treated with CellTiter-Blue® (20 μL/well), and the plates were incubated using standard cell culture conditions for 1 hour. Fluorescence was measured at 560/590 nm.

glutathione (GSH) = test: Reactivity Profiling with Glutathione (GSH); type: in vitro ADME; conditions: cell culture medium (IMDM, 10% FBS) with 5 mM glutathione, 25 μM inhibitor, IMDM with 10% FBS, 0.5% DMSO, 25° C., HPLC, read-out: T1/2-GSH
Description: In some embodiments, metabolic stability of the compounds is evaluated according to their reactivity profiles with GSH.
3.5 μL of 5 mM stocking solution of the inhibitors in DMSO was added to 697.5 μL of Iscove's Modified Dulbecco's Medium (IMDM) supplemented with 10% FBS and antibiotic antimycotic solution, with 5 mM glutathione to afford a final concentration of 25 μM inhibitor with 0.5% DMSO. The solution was then immediately placed in the sample tray at 25° C. Sample was analyzed at pre-defined intervals, typically every 1.5 hours, for up to four injections, by HPLC, included at time zero, without further pre-treatment. For each inhibitor, its peak is integrated at different time points and compared to the time zero injection in order to obtain a percentage remaining. Half-life is calculated according to a first order reaction kinetic taking into account those time points for which remaining percentage of inhibitor is above 40%, using the formula: t½=Ln(2)/k, where k is the slope of the linear plot of Ln[Inhibitor] vs time, according to the formula: Ln[A]=Ln[A]0−kt, where [A] is the value resulting from the integration at each time point, [A]0 the value at time zero, and t the time. For each inhibitor, both replicates are averaged and the resulting t½ reported. Selective reactivity against GSH in particular is confirmed by incubation of the inhibitor in the same solution without the presence of GSH, and single analysis after a time longer than the latest time point analyzed for the samples with GSH.

Row | half-life at 25 μM (glutathione (GSH)) [h] | SMILES | IC50 (MV4-11 cells; Homo sapiens, MV4-11, 72 h) [µM] | also measured
1 |  | CC(C)C[C@H](C(=O)N(Cc1cc(C2CC2)cc(C(C)(C)C)c1)c1ccc(C(=O)O)c(O)c1)N(Cc1ccc(Cl)cc1)S(=O)(=O)c1c(F)c(F)c(F)c(F)c1F [Compound 1005, (R)-4-(N-(3-(tert-butyl)-5-cyclopropylbenzyl)-2-(N-(4-chlorobenzyl)-(2,3,4,5,6-pentafluorophenyl)sulfonamido)-4-methylpentanamido)-2-hydroxybenzoic acid] |  | IC50 (MV4-11 cells): 5 to 10 µM
2 |  | CC(C)[C@@H](C(=O)N(Cc1cc(C2CC2)cc(C(C)(C)C)c1)c1ccc(C(=O)O)c(O)c1)N(Cc1ccc(Cl)cc1)S(=O)(=O)c1c(F)c(F)c(F)c(F)c1F [Compound 1003, (S)-4-(N-(3-(tert-butyl)-5-cyclopropylbenzyl)-2-(N-(4-chlorobenzyl)-(2,3,4,5,6-pentafluorophenyl)sulfonamido)-3-methylbutanamido)-2-hydroxybenzoic acid] | 1e-05 to 5 | 
3 |  | CC(C)C[C@H](C(=O)N(Cc1cc(C2CC2)cc(C(C)(C)C)c1)c1ccc(C(=O)O)c(O)c1)N(Cc1ccc(Cl)cc1)S(=O)(=O)c1c(F)c(F)c(F)c(F)c1F [Compound 1001, (R)-4-(N-(3-(tert-butyl)-5-cyclopropylbenzyl)-2-(N-(4-chlorobenzyl)-(2,3,4,5,6-pentafluorophenyl)sulfonamido)-4-methylpentanamido)-2-hydroxybenzoic acid] |  | IC50 (MV4-11 cells): 1e-05 to 5 µM
4 |  | C[C@@H](C(=O)N(Cc1cc(C2CC2)cc(C(C)(C)C)c1)c1ccc(C(=O)O)c(O)c1)N(Cc1ccc(Cl)cc1)S(=O)(=O)c1c(F)c(F)c(F)c(F)c1F [Compound 1002, (S)-4-(N-(3-(tert-butyl)-5-cyclopropylbenzyl)-2-(N-(4-chlorobenzyl)-(2,3,4,5,6-pentafluorophenyl)sulfonamido)propanamido)-2-hydroxybenzoic acid] | 1e-05 to 5 | 
5 |  | C[C@H](C(=O)N(Cc1cc(C2CC2)cc(C(C)(C)C)c1)c1ccc(C(=O)O)c(O)c1)N(Cc1ccc(Cl)cc1)S(=O)(=O)c1c(F)c(F)c(F)c(F)c1F [Compound 1004, (R)-4-(N-(3-(tert-butyl)-5-cyclopropylbenzyl)-2-(N-(4-chlorobenzyl)-(2,3,4,5,6-pentafluorophenyl)sulfonamido)propanamido)-2-hydroxybenzoic acid] | 5 to 10 | 
6 | 9.23 to 1670 | C[C@H](C(=O)N(Cc1cc(C2CC2)cc(N2CCCC2)c1)c1ccc(C(=O)O)cc1C1CC1)N(Cc1ccc(F)cc1Cl)S(=O)(=O)c1c(F)c(F)c(F)c(F)c1F [Compound 1009, (R)-4-(2-(N-(2-chloro-4-fluorobenzyl)-(2,3,4,5,6-pentafluorophenyl)sulfonamido)-N-(3-cyclopropyl-5-(pyrrolidin-l-yl)benzyl)propan-amido)-3-cyclopropylbenzoic acid] |  | 
7 | 2.37 to 9.23 | C[C@@H](C(=O)N(Cc1cc(C2CC2)cc(C2CC2)c1)c1ccc(C(=O)O)cc1OC1CC1)N(Cc1ccc(F)cc1Cl)S(=O)(=O)c1c(F)c(F)c(F)c(F)c1F [Compound 1006, (S)-4-(2-(N-(2-chloro-4-fluorobenzyl)-(2,3,4,5,6-pentafluorophenyl)sulfonamido)-N-(3,5-dicyclopropylbenzyl)propanamido)-3-cyclopropoxybenzoic acid] |  | 
8 | 2.37 to 9.23 | C[C@@H](C(=O)N(Cc1cc(C2CC2)cc(N2CCCC2)c1)c1ccc(C(=O)O)cc1C1CC1)N(Cc1ccc(F)cc1Cl)S(=O)(=O)c1c(F)c(F)c(F)c(F)c1F [Compound 1008, (S)-4-(2-(N-(2-chloro-4-fluorobenzyl)-(2,3,4,5,6-pentafluorophenyl)sulfonamido)-N-(3-cyclopropyl-5-(pyrrolidin-1-yl)benzyl)propan-amido)-3-cyclopropylbenzoic acid] |  | 
